Assay results from US20230183179A1, “NOVEL CELL METABOLISM MODULATING COMPOUNDS AND USES THEREOF” (CRESCENTA BIOSCIENCES, priority 2020, published 2023).

Key:
[1] = system: differentiated 3T3-L1 mouse adipocyte cells; assay: Adipocyte glucose consumption in differentiated 3T3-L1 cells (colorimetric glucose assay of the medium); assay type: cell-based; settings: 3T3-L1, 24 h, compound 10 μM, loss of glucose from culture medium, mean fold change (compound/DMSO)
Protocol: Activity of compounds on adipocyte glucose consumption was tested in differentiated 3T3-L1 mouse adipocyte cells. 3T3-L1 preadipocytes (ATCC) were routinely cultured in a growth medium composed of DMEM high-glucose (Sigma), 10% FBS (Gibco), 10 U/ml penicillin and 10 μg/ml streptomycin (P/S; Gibco). To induce adipogenic differentiation, a confluent layer of 3T3-L1 cells were incubated with the growth medium containing 2 μM rosiglitazone, 1 μM dexamethasone, 500 μM IBMX, and 1 μg/ml insulin (Sigma). Forty-eight (48) hours later (on day 2) and on days 4 and 6, medium of the cells was replaced with fresh medium containing 1 μg/ml insulin. On days 8 and 10, the medium was refreshed with regular growth medium and addition of insulin was omitted. On day 11, medium of the cells were 10 replaced with fresh medium containing either the indicated compounds (10 μM) or the vehicle in which the compounds were dissolved (DMSO). The final concentration of DMSO was 0.1% (v/v). Growth medium containing 0.1% DMSO was incubated in culture wells containing no cells and used as control. 24 hours later, medium was harvested and subjected to centrifugation at 10,000 g for 5 min. Glucose concentration in the supernatants was determined using a 15 colorimetric assay (Glucose Assay Kit I, Eton Biosciences). Glucose consumption in compound and vehicle treated cells was measured as loss of glucose from the culture medium and represented as mean fold change (compound/DMSO)±standard deviation (SD).

[2] = biological target: T1, His6 tagged human recombinant FABP4 (Homo sapiens, UniProt P15090); assay: FABP4 TR-FRET assay: displacement of fluorescent fatty acid BODIPY FL C12; settings: inhibition of BODIPY FL C12 binding to His6-FABP4; 1.2 μL of 1.085 mM compound in DMSO per well; triplicates, mean percent inhibition
T1 construct: purchased Cayman Chemicals 10009549
T1 sequence (P15090 whole entry): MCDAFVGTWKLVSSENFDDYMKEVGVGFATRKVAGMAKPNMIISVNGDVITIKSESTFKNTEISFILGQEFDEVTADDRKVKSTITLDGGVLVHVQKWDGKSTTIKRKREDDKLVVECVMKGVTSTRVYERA
Text: Activity of compounds with FABP4 was profiled using a Terbium (Tb) based time resolved fluorescence energy transfer (TR-FRET) assay. The assay measures the compound mediated displacement of the fluorescent fatty acid BODIPY FL C12 (Thermo Fisher; catalog number D3822) from His6 tagged human recombinant FABP4 (His6-FABP4; Cayman Chemicals, catalog number 10009549) via recording the energy transfer from TB donor molecule on anti-His6-tag antibody to acceptor BODIPY moiety. Briefly, compounds and BODIPY FL C12 were prepared at a concentration of 1.085 mM and 4.2 μM, respectively, in DMSO. 1.2 μL of each compound or DMSO (vehicle control) and 1.2 μL of BODIPY FL C12 were added into the wells of a 384-well black polypropylene plate. His6-FABP4 and Tb anti-His6 antibody were prepared in the assay buffer (25 mM Tris/HCl, pH 7.4, 0.4 mg/ml γ-globulins, 0.010% NP-40, 1 mM DTT) at a concentration of 83 nM and 49.6 nM, respectively. The protein and antibody solutions were then mixed at a ratio of 34:7 (v/v) and incubated on ice for 30 minutes. The assay was initiated by adding 41 μL of the resulting protein/antibody solution into the wells containing the compounds and BODIPY FL C12. The plate was centrifuged and incubated at room temperature for 10 min. The TR-FRET signals were recorded using an EnVision Multilabel plate reader (PerkinElmer; TB excitation 320 nm, BODIPY FL C12 emission 520 nm; TB emission 615 nm). Relative fluorescence ratio (520 nm*10,000/615 nm) were used to calculate the compound mediated inhibition of BODIPY C12 FL fatty acid binding to FABP4. The compounds were tested in triplicates and the results were represented as mean percent inhibition (compound*100/DMSO)±standard deviation (SD). Glucose consumption and FABP4 inhibition is shown below in Table 3 below. The compounds showing no inhibition of activity in the TR-FRET assay are marked as N.A. N.D. stands for “not determined”.

Clc1ccc2nc(N3CCCCC3)cc(-c3ccccc3)c2c1 [6-chloro-4-phenyl-2-(piperidin-1-yl)quinoline]
fold induction at 10 µM [1]: 0.99 | inhibition at 1085 µM (stock) [2]: 64.3%

CCCCCCCCc1ccc2nc(N(CCC)CC(=O)O)cc(-c3ccc(F)cc3)c2c1 [2-{[4-(4-fluorophenyl)-6-octylquinolin-2-yl](propyl)amino}acetic acid]
fold induction at 10 µM [1]: 1.2 | inhibition at 1085 µM (stock) [2]: 53.1%

O=C(O)COc1cc(-c2ccccc2)c2cc(Cl)ccc2n1 [2-[(6-chloro-4-phenylquinolin-2-yl)oxy]acetic acid]
fold induction at 10 µM [1]: 1.1 | inhibition at 1085 µM (stock) [2]: 34.4%

CCCCCCc1ccc2nc(N(CC(=O)O)CC(C)C)cc(-c3ccc(F)cc3)c2c1 [2-{[4-(4-fluorophenyl)-6-hexylquinolin-2-yl](2-methylpropyl)amino}acetic acid]
fold induction at 10 µM [1]: 1.18 | inhibition at 1085 µM (stock) [2]: 78.7%

CCCCc1ccc2nc(N(C)CC(=O)O)cc(-c3ccc(O)cc3)c2c1 [2-{[6-butyl-4-(4-hydroxyphenyl)quinolin-2-yl](methyl)amino}acetic acid]
fold induction at 10 µM [1]: 1.26 | inhibition at 1085 µM (stock) [2]: 60.5%

CCCCc1ccc2nc(N(C)CC(=O)O)cc(-c3ccncc3)c2c1 [2-{[6-butyl-4-(pyridin-4-yl)quinolin-2-yl](methyl)amino}acetic acid]
fold induction at 10 µM [1]: 1.28 | inhibition at 1085 µM (stock) [2]: 15%

CCCCc1ccc2nc(N3CCCCC3)cc(-c3ccccc3)c2c1 [6-butyl-4-phenyl-2-(piperidin-1-yl)quinoline]
fold induction at 10 µM [1]: 0.99 | inhibition at 1085 µM (stock) [2]: 56.5%

CCCCCCCCc1ccc2nc(N(C)CC(=O)O)cc(Oc3ccc(F)cc3)c2c1 [2-{[4-(4-fluorophenoxy)-6-octylquinolin-2-yl](methyl)amino}acetic acid]
fold induction at 10 µM [1]: 1.41 | inhibition at 1085 µM (stock) [2]: 78.7%

CN(CC(=O)O)c1cc(-c2ccccc2)c2cc(Br)ccc2n1 [2-[(6-bromo-4-phenylquinolin-2-yl)(methyl)amino]acetic acid]
fold induction at 10 µM [1]: 1.26 | inhibition at 1085 µM (stock) [2]: 109%

CC(C(=O)O)N(C)c1cc(-c2ccccc2)c2cc(Cl)ccc2n1 (stereo not drawn) [2-[(6-chloro-4-phenylquinolin-2-yl)(methyl)amino]propanoic acid]
fold induction at 10 µM [1]: 1.18 | inhibition at 1085 µM (stock) [2]: 97.4%

NC(=O)c1cccc(-c2cc(OCC(=O)O)nc3ccc(Br)cc23)c1 [2-{[6-bromo-4-(3-carbamoylphenyl)quinolin-2-yl]oxy}acetic acid]
fold induction at 10 µM [1]: 1 | inhibition at 1085 µM (stock) [2]: 19.1%

CN(CC(=O)O)c1cc(-c2ccncc2)c2cc(CCc3cccnc3)ccc2n1 [2-[methyl({6-[2-(pyridin-3-yl)ethyl]-4-(pyridin-4-yl)quinolin-2-yl})amino]acetic acid]
fold induction at 10 µM [1]: 1.06 | inhibition at 1085 µM (stock) [2]: 24.6%

CCCCCCc1ccc2nc(N(C)Cc3nn[nH]n3)cc(-c3ccccc3)c2c1 [6-hexyl-N-methyl-4-phenyl-N-[(2H-1,2,3,4-tetrazol-5-yl)methyl]quinolin-2-amine]
fold induction at 10 µM [1]: 1.52 | inhibition at 1085 µM (stock) [2]: 37.8%

CCCCCCCCc1ccc2nc(N(C)CC(=O)O)cc(Oc3ccncc3)c2c1 [2-{methyl [6-octyl-4-(pyridin-4-yloxy)quinolin-2-yl]amino}acetic acid]
fold induction at 10 µM [1]: 1.14 | inhibition at 1085 µM (stock) [2]: 19.4%

O=C(O)COc1cc(-c2ccccc2)c2cc(Br)ccc2n1 [2-[(6-bromo-4-phenylquinolin-2-yl)oxy]acetic acid]
fold induction at 10 µM [1]: 1.01 | inhibition at 1085 µM (stock) [2]: 35%

CCc1ccc2nc(N(C)CC(=O)O)cc(-c3ccccc3)c2c1 [2-[(6-ethyl-4-phenylquinolin-2-yl)(methyl)amino]acetic acid]
fold induction at 10 µM [1]: 1.12 | inhibition at 1085 µM (stock) [2]: 103%

CN(c1cc(-c2ccccc2)c2cc(CCc3ccccc3)ccc2n1)c1nnn[nH]1 [N-methyl-4-phenyl-6-(2-phenylethyl)-N-(1H-1,2,3,4-tetrazol-5-yl)quinolin-2-amine]
fold induction at 10 µM [1]: 1.17 | inhibition at 1085 µM (stock) [2]: 76.3%

CCCCc1ccc2nc(N(C)CC(=O)O)cc(-c3ccccc3F)c2c1 [2-{[6-butyl-4-(2-fluorophenyl)quinolin-2-yl](methyl)amino}acetic acid]
fold induction at 10 µM [1]: 1.33 | inhibition at 1085 µM (stock) [2]: 67%

CCCCCCc1ccc2nc(N(C)CC(=O)O)cc(Oc3ccc(F)cc3)c2c1 [2-([4-(4-fluorophenoxy)-6-hexylquinolin-2-yl](methyl)amino}acetic acid]
fold induction at 10 µM [1]: 1.27 | inhibition at 1085 µM (stock) [2]: 65.2%

CCCCCCC1CCc2nc(N(C)CC(=O)O)cc(-c3ccccc3)c2C1 (stereo not drawn) [2-[(6-hexyl-4-phenyl-5,6,7,8-tetrahydroquinolin-2-yl)(methyl)amino]acetic acid]
fold induction at 10 µM [1]: 1.34 | inhibition at 1085 µM (stock) [2]: 64.5%

CN(CC(=O)O)c1cc(-c2ccccc2)c2cc(CCc3cnccn3)ccc2n1 [2-[methyl({4-phenyl-6-[2-(pyrazin-2-yl)ethyl]quinolin-2-yl})amino]acetic acid]
fold induction at 10 µM [1]: 1.28 | inhibition at 1085 µM (stock) [2]: 4.98%

CN(CC(=O)O)c1cc(-c2ccccc2)c2cc(CCc3ccc(Cl)cc3)ccc2n1 [2-({6-[2-(4-chlorophenyl)ethyl]-4-phenylquinolin-2-yl}(methyl)amino)acetic acid]
fold induction at 10 µM [1]: 1.43 | inhibition at 1085 µM (stock) [2]: 56.4%

CN(CC(=O)O)c1cc(-c2ccccc2)c2cc(CCc3ccncc3)ccc2n1 [2-[methyl({4-phenyl-6-[2-(pyridin-4-yl)ethyl]quinolin-2-yl})amino]acetic acid]
fold induction at 10 µM [1]: 1.26 | inhibition at 1085 µM (stock) [2]: < 0%

CCCCCCc1ccc2nc(N(C)CC(=O)O)cc(-c3ccccc3)c2c1 [2-[(6-hexyl-4-phenylquinolin-2-yl)(methyl)amino]acetic acid]
fold induction at 10 µM [1]: 1.41 | inhibition at 1085 µM (stock) [2]: 88.2%

CCCCCOc1ccc2nc(N(C)CC(=O)O)cc(-c3ccccc3)c2c1 [2-{methyl [6-(pentyloxy)-4-phenylquinolin-2-yl]amino}acetic acid]
fold induction at 10 µM [1]: 1.27 | inhibition at 1085 µM (stock) [2]: 102%

CCCCc1ccc2nc(OC(C)C(=O)O)cc(-c3cccc(C#N)c3)c2c1 (stereo not drawn) [2-{[6-butyl-4-(3-cyanophenyl)quinolin-2-yl]oxy}propanoic acid]
fold induction at 10 µM [1]: 1.26 | inhibition at 1085 µM (stock) [2]: 12.7%

CN(CC(=O)O)c1cc(-c2ccccc2)c2cc(CCc3nc4ccccc4o3)ccc2n1 [2-({6-[2-(1,3-benzoxazol-2-yl)ethyl]-4-phenylquinolin-2-yl}(methyl)amino)acetic acid]
fold induction at 10 µM [1]: 1.23 | inhibition at 1085 µM (stock) [2]: 27.4%

CCCCCCc1ccc2nc(N(C)CC(=O)O)cc(N3CCC(F)(F)C3)c2c1 [2-{[4-(3,3-difluoropyrrolidin-1-yl)-6-hexylquinolin-2-yl](methyl)amino}acetic acid]
fold induction at 10 µM [1]: 1.28 | inhibition at 1085 µM (stock) [2]: 50.5%

CCCCc1ccc2nc(N(C)CC(=O)O)cc(-c3cccc(F)c3)c2c1 [2-{[6-butyl-4-(3-fluorophenyl)quinolin-2-yl](methyl)amino}acetic acid]
fold induction at 10 µM [1]: 1.43 | inhibition at 1085 µM (stock) [2]: 58.9%

CCCCc1ccc2nc(N(C)CC(=O)O)cc(-c3cccc(C#N)c3)c2c1 [2-{[6-butyl-4-(3-cyanophenyl)quinolin-2-yl](methyl)amino}acetic acid]
fold induction at 10 µM [1]: 1.33 | inhibition at 1085 µM (stock) [2]: 33.2%
